Measurements reported in patent EP2548863A1, “New CRTh2 antagonists” (Almirall, S.A., priority 2011, dated 2013).

Molecular target: T1, CRTh2 receptor (Homo sapiens, UniProt Q9Y5Y4)
T1 construct: expressed in transfected cells; host or cells: CHO.K1 cells (membranes)
T1 sequence (Q9Y5Y4 1-395): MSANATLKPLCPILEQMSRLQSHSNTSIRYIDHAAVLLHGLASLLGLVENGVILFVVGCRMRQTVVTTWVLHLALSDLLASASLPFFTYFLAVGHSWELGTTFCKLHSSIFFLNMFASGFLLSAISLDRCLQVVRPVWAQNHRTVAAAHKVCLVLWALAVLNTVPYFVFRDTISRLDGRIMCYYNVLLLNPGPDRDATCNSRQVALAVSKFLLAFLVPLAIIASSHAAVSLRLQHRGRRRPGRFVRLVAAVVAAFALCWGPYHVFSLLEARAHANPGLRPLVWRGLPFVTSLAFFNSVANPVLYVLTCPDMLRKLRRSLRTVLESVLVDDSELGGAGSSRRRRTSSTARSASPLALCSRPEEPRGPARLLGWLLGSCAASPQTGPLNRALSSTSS
Experiment: CRTh2 GTPγS antagonism binding assay
Format: biochemical
Details: membranes from CHO.K1 cells stably overexpressing the CRTh2 receptor; [35S]-GTPγS 0.1 nM; PGD2 at 50 nM (EC80); IC50 per method; read-out: GTPγ Binding
Procedure: CRTh2 GTPγS antagonism bending assay
The assay is performed using membranes obtained from CHO.K1 cells stably overexpressing the CRTh2 receptor and [^35S]-GTPγS as radioligand. Assay is performed pre-incubating 4-8 µg of membranes per well with the compound to be tested for 1h, followed by incubation with PGD2 at 50 nM (EC80), 0.1 nM [^35S]-GTPγS in incubation buffer (20 mM Herpes, 10 mM MgCl2, 100 mM NaCl, 10 µM GDP, 10 µg/ml Saponine and 0.2% BSA) for 2 h at room temperature. The reaction is terminated by filtering in GF/C plates pre-treated with 20 mM HEPES, 10 mM MgCl2, 100 mM NaCl and washing 6 times with wash buffer (20 mM NaH2PO4, 20 mM Na2HPO4). After washing, plates are dried and scintillation buffer Optiphase added. The radioactivity retained in the filter is counted using a Microbeta liquid scintillation counter. Compound IC50 are determined using Excel XL-fit for calculations.

Compound | IC50
CCN(Cc1cc(C(F)(F)F)ccc1-c1nn(CC(=O)O)c2ccc(Cl)cc12)C(=O)C1CC1 [Example 5] | 16 nM
CCN(Cc1cc(F)ccc1-c1nn(CC(=O)O)c2ccc(Cl)cc12)C(=O)OC(C)(C)C [Example 18, [3-(2-{[(tert-Butoxycarbonyl)(ethyl)amino]methyl}-4-fluorophenyl)-5-chloro-1H-indazol-1-yl]acetic acid] | 13 nM
CCN(Cc1cc(C(F)(F)F)ccc1-c1cn(CC(=O)O)c2ccc(F)cc12)C(=O)C1CC1 [Example 33] | 18 nM
CCN(Cc1cc(C(F)(F)F)ccc1-c1nn(CC(=O)O)c2cccc(C)c12)C(=O)C1CC1 [Example 16, {3-[2-{[(Cyclopropylcarbonyl)(ethyl)ammo]methyl}-4-(trifluoromethyl)phenyl]-4-methyl-1H-indazol-1-yl}acetic acid] | 17 nM
CCN(Cc1cc(F)ccc1-c1cn(CC(=O)O)c2ccccc12)C(=O)C1CC1 [Example 37, [3-(2-[[(Cyclopropylcarbonyl)(ethyl)amino]methyl}-4-fluorophenyl)-1H-indol-1-yl]acetic acid] | 11 nM
CCN(Cc1cc(C(F)(F)F)ccc1-c1nn(CC(=O)O)c2ccccc12)C(=O)C1CC1 [Example 1, {3-[2-{[(Cyclopropylcarbonyl)(ethyl)amino]methyl]-4-(trifluoromethyl)phenyl]-1H-indazol-1-yl}acetic acid] | 18 nM
CCN(Cc1cc(C(F)(F)F)ccc1-c1cn(CC(=O)O)c2cccc(F)c12)C(=O)C1CC1 [Example 40, (3-[2-[[(Cyclopropylcarbonyl)(ethyl)amino]methyl}-4-(trifluoromethyl)phenyl]-4-fluoro-1H-indol-1-yl}acetic acid] | 3 nM
CCN(Cc1cc(F)ccc1-c1nn(CC(=O)O)c2ccc(Cl)cc12)C(=O)C1CCC1 [Example 19, [5-Chloro-3-(2-{[(cyclobutylcarbonyl)(ethyl)amino]methyl}-4-fluorophenyl)-1H-indazol-1-yl]acetic acid] | 7 nM
CCN(Cc1cc(C(F)(F)F)ccc1-c1nn(CC(=O)O)c2ccc(F)c(Cl)c12)C(=O)C1CC1 [Example 17, {4-Chloro-3-[2-{[(cydopropylcarbonyl)(ethyl)amino]methyl}-4-(trifluoromethyl)phenyl]-5-fluoro-1H-indazol-1-yl}acetic acid] | 10 nM
CCN(Cc1cc(C(F)(F)F)ccc1-c1cn(CC(=O)O)c2ccc(F)cc12)C(=O)NCc1ccccc1 [Example 43, {3-[2-{[[(Benzylamino)carbonyl](ethyl)aaino]methyl]-4-(trifluoromethyl)phenyl]-5-fluoro-1H-indol-1-yl}acetic acid] | 16 nM
CCN(Cc1cc(C(F)(F)F)ccc1-c1nn(CC(=O)O)c2ccc(Cl)c(F)c12)C(=O)C1CC1 [Example 27] | 14 nM
CCN(Cc1cc(C(F)(F)F)ccc1-c1nn(CC(=O)O)c2cccc(Cl)c12)C(=O)NCc1ccccc1 [Example 23, (3-[2-{[[(Benzylamino)carbonyl](ethyl)amino]methyl}-4-(trifluoromethyl)phenyl]-4-chloro-1H-indazol-1-yl}acetic acid] | 8 nM
CCN(Cc1ccccc1-c1nn(CC(=O)O)c2ccc(Cl)cc12)C(=O)C1CC1 [Example 24] | 9 nM
CCN(Cc1cc(F)ccc1-c1nn(CC(=O)O)c2ccc(Cl)cc12)C(C)=O [Example 22] | 10 nM
CCN(Cc1cc(C(F)(F)F)ccc1-c1nn(CC(=O)O)c2cccc(F)c12)C(=O)C1CC1 [Example 14, {3-[2-{[(Cyclopropylcarbonyl)(ethyl)amino]methyl}-4-(trifluoromethyl)phenyl]-4-fluoro-1H-indazol-1-yl}acetic acid] | 4 nM
CCN(Cc1cc(C(F)(F)F)ccc1-c1nn(CC(=O)O)c2cccc(Cl)c12)C(=O)C1CC1 [Example 2, {4-Chloro-3-[2-{[(cyccopropylcarbonyl)(ethyl)amino]methyl}-4-(trifluoromethyl)phenyl]-1H-indazol-1-yl}acetic acid] | 6 nM

Second part, the compound after the results:

IC50 | Compound
16 nM | CCN(Cc1cc(C(F)(F)F)ccc1-c1cn(CC(=O)O)c2ccc(F)c(F)c12)C(=O)C1CC1 [Example 50, {3-[2-{[(Cyclopropylcarbonyl)(ethyl)amino]methyl)-4-(trifluoromethyl)phenyl]-4,5-difluoro-1H-indol-1-yl}acetic acid]
15 nM | CCN(Cc1cc(C(F)(F)F)ccc1-c1nn(CC(=O)O)c2ccc(F)cc12)C(=O)C1CC1 [Example 3, {3-[2-{[(Cyclopropylcarbonyl)(ethyl)amino]methyl}-4-(trifluoromethyl)phenyl]-5-fluoro-1H-indazol-1-yl}acetic acid]
13 nM | CCN(Cc1cc(C(F)(F)F)ccc1-c1nn(C(C)C(=O)O)c2cccc(Cl)c12)C(=O)C1CC1 (stereo not drawn) [Example 9, 2-{4-Chloro-3-[2-{[(cyclopropylcarbonyl)(ethyl)amino]methyl}-4-(trifluoromethyl)phenyl]-1H-indazol-1-yl}propanoic acid]
4 nM | CCN(Cc1ccccc1-c1cn(CC(=O)O)c2ccc(F)cc12)C(=O)C1CC1 [Example 54, [3-(2-([(Cyclopropylcarbonyl)(ethyl)amino]methyl)phenyl)-5-fluoro-1H-indol-1-yl]acetic acid]
9 nM | Cc1nnc(C2CC2)n1Cc1cc(C(F)(F)F)ccc1-c1cn(CC(=O)O)c2ccc(F)cc12 [Example 46, (3-[2-[(3-Cyclopropyl-5-methyl-4H-1,2,4-triazol-4-yl)methyl]-4-(trifluoromethyl)phenyl]-5-fluoro-1H-indol-1-yl}acetic acid]
6 nM | CCN(Cc1cc(F)ccc1-c1cn(CC(=O)O)c2ccc(F)cc12)C(=O)C1CC1 [Example 42, [3-(2-([(Cyclopropylcarbonyl)(ethyl)amino]methyl}-4-fluorophenyl)-5-fluoro-1H-indol-1-yl]acetic acid]
7 nM | CCN(Cc1cc(F)ccc1-c1cn(CC(=O)O)c2cccc(F)c12)C(=O)C1CC1 [Example 52, [3-(2-{[(Cyclopropylcarbonyl)(ethyl)amino]methyl}-4-fluorophenyl)-4-fluoro-1H-indol-1-yl]acetic acid]
6 nM | CCN(Cc1cc(F)ccc1-c1nn(CC(=O)O)c2ccc(Cl)cc12)C(=O)C1CC1 [Example 11, [5-Chloro-3-(2-{[(cyclopropylcarbonyl)(ethyl)amino]methyl}-4-fluorophenyl)-1H-indazol-1-yl]acetic acid]
7 nM | CCN(Cc1cc(F)ccc1-c1nn(CC(=O)O)c2ccc(C(F)(F)F)cc12)C(=O)C1CC1 [Example 8, [3-(2-{[(Cyclopropylcarbonyl)(ethyl)amino]methyl}-4-fluorophenyl)-5-(trifluoromethyl)-1H-indazol-1-yl]acetic acid]
19 nM | CCN(Cc1cc(C(F)(F)F)ccc1-c1cn(CC(=O)O)c2ccccc12)C(=O)C1CC1 [Example 31, (3-[2-[[(Cyclopropylcarbonyl)(ethyl)amino]methyl)-4-(trifluoromethyl)phenyl]-1H-indol-1-yl}acetic acid]
13 nM | CCN(Cc1cc(F)ccc1-c1cn(CC(=O)O)c2ccc(C(F)(F)F)cc12)C(=O)C1CC1 [Example 39, [3-(2-[[(Cyclopropylcarbonyl)(ethyl)amino]methyl}-4-fluorophenyl)-5-(trifluoromethyl)-1H-indol-1-yl]acetic acid]
18 nM | CCN(Cc1cc(C(F)(F)F)ccc1-n1cc(CC(=O)O)c2ccc(F)cc21)C(=O)C1CC1 [Example 30, {1-[2-[[(Cyclopropylcarbonyl)(ethyl)amino]methyl}-4-(trifluoromethyl)phenyl]-6-fluoro-1H-indol-3-yl}acetic acid]
9 nM | CCN(Cc1cc(F)ccc1-c1nn(CC(=O)O)c2cccc(Cl)c12)C(=O)C1CC1 [Example 4, [4-Chloro-3-(2-{[(cyclopropylcarbonyl)(ethyl)amino]methyl}-4-fluorophenyl)-1H-indazol-1-yl]acetic acid]
8 nM | CCN(Cc1cc(C(F)(F)F)ccc1-c1nn(CC(=O)O)c2ccc(C)cc12)C(=O)C1CC1 [Example 15, {3-[2-{[(Cyclopropylcarbonyl)(ethyl)amino]methyl}-4-(trifluoromethyl)phenyl]-5-methyl-1H-indazol-1-yl}acetic acid]
